Results: patent US20210038559A1, “CANNABINOIDS AND DERIVATIVES FOR PROMOTING IMMUNOGENICITY OF TUMOR AND INFECTED CELLS” (priority 2018, published 2021)

Test system: MHC-I expression by COLO 205 cells
Assay: cells
Type: cell-based, human
Conditions: not given
Description: A panel of synthetic cannabinoids (Cayman Chemical, #9002891) was tested for MHC class I-inducing capability in COLO 205 cells as described above. COLO 205 cells were treated with the compounds at a concentration of 35 μM and evaluated for cell surface MHC class I expression after 48 hours. Cells were harvested, stained with MHC-I mAb W6/32 (Thermo Fisher). MHC-I expression was determined by flow cytometry.

Molecule | Induction Fold
(1-hexyl-1H-indol-3-yl)-1-naphthalenyl-methanone [Example 140] | 2.19 Fold
CCCCCn1cc(C(=O)c2cccc3ccccc23)cc1-c1ccccc1 [Example 77, 1-naphthalenyl(1-pentyl-5-phenyl-1H-pyrrol-3-yl)-methanone] | 2.60 Fold
CCCCCn1cc(C(=O)c2cccc3ccccc23)cc1-c1ccccc1C [Example 60, [5-(2-methylphenyl)-1-pentyl-1H-pyrrol-3-yl]-1-naphthalenyl-methanone] | 2.85 Fold
(1-heptyl-5-phenyl-1H-pyrrol-3-yl)-1-naphthalenyl-methanone [Example 212] | 1.83 Fold
(1-hexyl-5-phenyl-1H-pyrrol-3-yl)-1-naphthalenyl-methanone [Example 82] | 2.54 Fold
[5-(2-chlorophenyl)-1-pentyl-1H-pyrrol-3-yl]-1-naphthalenyl-methanone [Example 63] | 2.77 Fold
CCCCCOc1ccc(C(=O)c2cccc3ccccc23)c2ccccc12 [Example 152, 1-naphthalenyl[4-(pentoxy)-1-naphthalenyl]-methanone] | 2.12 Fold

Same assay, conditions: Homo sapiens, COLO 205, 48 h, MHC-I expression, COLO 205 cells, compounds at 35 μM, 48 hours, flow cytometry (W6/32); read-out: Induction Fold

Molecule | fold induction at 35 µM
C/C(=C\C(=O)c1cn(CCN2CCOCC2)c2ccccc12)C(C)(C)C [Example 132, (E)-3,4,4-trimethyl-1-(1-(2-morpholinoethyl)-1H-indol-3-yl)pent-2-en-1-one] | 2.25
CCCCCn1cc(C(=O)c2ccc(CCC)c3ccccc23)c2ccccc21 [Example 164, (1-pentyl-1H-indol-3-yl)(4-propyl-1-naphthalenyl)-methanone] | 2.03
O=C(Oc1cccc2ncccc12)c1cn(CC2CCCCC2)c2ccccc12 [Example 206, quinolin-5-yl 1-(cyclohexylmethyl)-1H-indole-3-carboxylate] | 1.86
Cc1c(C(=O)C2C(C)(C)C2(C)C)c2ccccc2n1CCCCCF [Example 126, (1-(5-fluoropentyl)-2-methyl-1H-indol-3-yl)(2,2,3,3-tetramethylcyclopropyl)methanone] | 2.29
CC1(C)C(C(=O)c2nn(CCCCCF)c3ccccc23)C1(C)C [Example 185, (1-(5-fluoropentyl)-1H-indazol-3-yl)(2,2,3,3-tetramethylcyclopropyl)methanone] | 1.9
CC(C)CCn1cc(C(=O)c2ccc3ccccc3c2)c2ccccc21 [Example 251, (1-isopentyl-1H-indol-3-yl)(naphthalen-2-yl)methanone] | 1.62
COc1ccc(C(=O)c2cn(CC3CCCCC3)c3ccccc23)c2ccccc12 [Example 253, [1-(cyclohexylmethyl)-1H-indol-3-yl](4-methoxy-1-naphthalenyl)-methanone] | 1.61
O=C(Oc1cncc2ccccc12)c1cn(CC2CCCCC2)c2ccccc12 [Example 124, isoquinolin-4-yl 1-(cyclohexylmethyl)-1H-indole-3-carboxylate] | 2.3
O=C(NC1C2CC3CC(C2)CC1C3)c1nn(CC2CCOCC2)c2ccccc12 (single isomer, unassigned) [Example 352, N-(adamantan-2-yl)-1-((tetrahydro-2H-pyran-4-yl)methyl)-1H-indazole-3-carboxamide] | 1.07
CC(F)CCCCn1cc(C(=O)c2cccc3ccccc23)c2ccccc21 (stereo not shown) [Example 233, (1-(5-fluorohexyl)-1H-indol-3-yl)(naphthalen-1-yl)methanone] | 1.71
CCCCCn1cc(C(=O)c2cccc3ccc(Cl)cc23)c2ccccc21 [Example 146, (7-chloronaphthalen-1-yl)(1-pentyl-1H-indol-3-yl)methanone] | 2.16
N#CCCCCn1cc(C(=O)c2cccc3ccccc23)c2ccccc21 [Example 55, 3-(1-naphthalenylcarbonyl)-1H-Indole-1-pentanenitrile] | 2.92
CC(C)C(C)n1cc(C(=O)c2cccc3ccccc23)c2ccccc21 (stereo not shown) [Example 70, (1-(3-methylbutan-2-yl)-1H-indol-3-yl)(naphthalen-1-yl)methanone] | 2.7
CCCCCn1cc(C(=O)c2cc(Cl)cc3ccccc23)c2ccccc21 [Example 263, (3-chloronaphthalen-1-yl)(1-pentyl-1H-indol-3-yl)methanone, hydrate] | 1.56
CCCCCn1cc(C(=O)c2ccc(OC)c3ccccc23)c2ccccc21 [Example 265, (4-methoxy-1-naphthalenyl)(1-pentyl-1H-indol-3-yl)-methanone] | 1.55
CCCCCn1cc(C(=O)c2cccc3cc(Cl)ccc23)c2ccccc21 [Example 285, (6-chloronaphthalen-1-yl)(1-pentyl-1H-indol-3-yl)methanone] | 1.46
COc1cccc2c(C(=O)N[C@@H]3C(C)(C)[C@@H]4CC[C@@]3(C)C4)cn(CCN3CCOCC3)c12 [Example 43, 7-methoxy-1-[2-(4-morpholinyl)ethyl]-N-[(1S,2 S,4R)-1,3,3-trimethylbicyclo[2.2.1]hept-2-yl]-1H-indole-3-carboxamide] | 3.06
CCC(Cl)CCn1cc(C(=O)c2cccc3ccccc23)c2ccccc21 (stereo not shown) [Example 114, (1-(3-chloropentyl)-1H-indol-3-yl)(naphthalen-1-yl)methanone] | 2.35
CCC(C(N)=O)N(C)C(=O)c1nn(Cc2ccc(F)cc2)c2ccccc12 (single isomer, unassigned) [Example 135, N-(1-amino-1-oxobutan-2-yl)-1-(4-fluorobenzyl)-N-methyl-1H-indazole-3-carboxamide] | 2.23
CCC(CC)n1cc(C(=O)c2cccc3ccccc23)c2ccccc21 [Example 48, naphthalen-1-yl(1-(pentan-3-yl)-1H-indol-3-yl)methanone] | 3
O=C(Nc1cccc2ccccc12)c1nn(CCCCCF)c2ccccc12 [Example 184, 1-(5-fluoropentyl)-N-1-naphthalenyl-1H-indazole-3-carboxamide] | 1.9
CCCC(F)CCn1cc(C(=O)c2cccc3ccccc23)c2ccccc21 (stereo not shown) [Example 176, (1-(3-fluorohexyl)-1H-indol-3-yl)(naphthalen-1-yl)methanone] | 1.95
CCCCCn1c(C)c(C(=O)c2ccc(CC)c3ccccc23)c2ccccc21 [Example 244, (4-ethyl-1-naphthalenyl)(2-methyl-1-pentyl-1H-indol-3-yl)-methanone] | 1.66
CCOc1ccc(Cc2nc3cc(C(=O)N(CC)CC)ccc3n2CC2CCCCC2)cc1 [Example 363, 1-(cyclohexylmethyl)-2-[(4-ethoxyphenyl)methyl]-N,N-diethyl-1H-benzimidazole-5-carboxamide] | 0.92
CCCCCCCC(C)(C)c1ccc([C@@H]2CCC[C@H](O)C2)c(O)c1 (relative stereo) [Example 241, rel-5-(1,1-dimethyloctyl)-2-[(1R,3S)-3-hydroxycyclohexyl]-phenol] | 1.68
O=C(Oc1ccc2cccnc2c1)c1cn(CC2CCCCC2)c2ccccc12 [Example 47, quinolin-7-yl 1-(cyclohexylmethyl)-1H-indole-3-carboxylate] | 3.01
NC(=O)[C@H](Cc1ccccc1)NC(=O)c1nn(CCCCCF)c2ccccc12 [Example 227, (S)-N-(1-amino-1-oxo-3-phenylpropan-2-yl)-1-(5-fluoropentyl)-1H-indazole-3-carboxamide] | 1.72

Same assay, conditions: MHC-I expression, COLO 205 cells, compounds at 35 μM, 48 hours, flow cytometry (W6/32)

Molecule | Induction Fold
CC[C@H](C)[C@H](NC(=O)c1c2ccccc2nn1CCCCCF)C(N)=O [Example 355, N-(1-amino-3S-methyl-1-oxopentan-2S-yl)-2-(5-fluoropentyl)-2H-indazole-3-carboxamide] | 1.05 Fold
CC1=CC[C@@H]2[C@@H](C1)c1c(O)cc(C(C)(C)c3ccccc3)cc1OC2(C)C [Example 367, 6aR,7,10,10aR-tetrahydro-6,6,9-trimethyl-3-(1-methyl-1-phenylethyl)-6H-dibenzo[b,d]pyran-1-ol] | 0.87 Fold
CCCCCn1c(C)c(C(=O)c2cccc3ccccc23)c2ccccc21 [Example 98, (2-methyl-1-pentyl-1H-indol-3-yl)-1-naphthalenyl-methanone] | 2.43 Fold
CCCCCCCC(C)(C)c1ccc([C@H]2CCC[C@H](O)C2)c(O)c1 (relative stereo) [Example 301, rel-2-[(1S,3S)-3-hydroxycyclohexyl)]-5-(2-methylnonan-2-yl)phenol] | 1.41 Fold
COC(=O)[C@H](NC(=O)c1nn(CCCCCF)c2ccccc12)C(C)(C)C [Example 179, N-[[1-(5-fluoropentyl)-1H-indazol-3-yl]carbonyl]-3-methyl-D-valine, methyl ester] | 1.94 Fold
O=C(Oc1cccc2cccnc12)c1nn(CCCCCF)c2ccccc12 [Example 311, 1-(5-fluoropentyl)-8-quinolinyl ester-1H-indazole-3-carboxylic acid] | 1.36 Fold
COCCn1c(C)c(C)sc1=NC(=O)C1C(C)(C)C1(C)C [Example 95, [N(Z)]-N-[3-(2-methoxyethyl)-4,5-dimethyl-2(3H)-thiazolylidene]-2,2,3,3-tetramethyl-cyclopropanecarboxamide] | 2.44 Fold
COC(=O)[C@@H](NC(=O)c1cn(Cc2ccc(F)cc2)c2ccccc12)C(C)(C)C [Example 269, N-[[1-[(4-fluorophenyl)methyl]-1H-indol-3-yl]carbonyl]-3-methyl-1-valine, methyl ester] | 1.54 Fold
CCCCCn1nc(C(=O)OC23CC4CC(CC(C4)C2)C3)c2ccccc21 [Example 243, (3s,5s,7s)-adamantan-1-yl 1-pentyl-1H-indazole-3-carboxylate] | 1.67 Fold
